# Experimental data reported in patent US10781189B2, “1,2,4-Oxadiazole and thiadiazole compounds as immunomodulators” (Aurigene Discovery Technologies Limited, priority 2015, dated 2020).
# Molecular target: T1, Recombinant mouse PD-L1 (Mus musculus, UniProt Q9EP73)
# T1 construct: Fc (Fc chimera); purchased R&D Systems 1019-B7-100
# Test: Rescue of mouse splenocyte proliferation in the presence of recombinant PD-L1 (CFSE proliferation assay)
# Type: cell-based
# Details: 100 nM compound; CFSE-labelled C57 BL6 mouse splenocytes + anti-CD3/CD28 + PD-L1 (100 ng/mL), 72 h; normalised to stimulated splenocytes as 100%; read-out: Percent rescue of splenocyte proliferation (@100 nM)
# Method: Example 15: Rescue of Mouse Splenocyte Proliferation in the Presence of Recombinant PD-L1
# Recombinant mouse PD-L1 (rm-PDL-1, cat no: 1019-B7-100; R&D Systems) were used as the source of PD-L1.
# Mouse splenocytes harvested from 6-8 weeks old C57 BL6 mice; RPMI 1640 (GIBCO, Cat #11875); DMEM with high glucose (GIBCO, Cat # D6429); Fetal Bovine Serum [Hyclone, Cat # SH30071.03]; Penicillin (10000 unit/mL)-Streptomycin (10,000 μg/mL) Liquid (GIBCO, Cat #15140-122); MEM Sodium Pyruvate solution 100 mM (100×), Liquid (GIBCO, Cat #11360); Nonessential amino acid (GIBCO, Cat #11140); L-Glutamine (GIBCO, Cat #25030); Anti-CD3 antibody (eBiosciences—16-0032); Anti-CD28 antibody (eBiosciences—16-0281); ACK lysis buffer (1 mL) (GIBCO, Cat #-A10492); Histopaque (density-1.083 gm/mL) (SIGMA 10831); Trypan blue solution (SIGMA-T8154); 2 mL Norm Ject Luer Lock syringe-(Sigma 2014-12); 40 μm nylon cell strainer (BD FALCON 35230); Hemacytometer (Bright line-SIGMA Z359629); FACS Buffer (PBS/0.1% BSA): Phosphate Buffered Saline (PBS) pH 7.2 (HiMedia TS1006) with 0.1% Bovine Serum Albumin (BSA) (SIGMA A7050) and sodium azide (SIGMA 08591); 5 mM stock solution of CFSE: CFSE stock solution was prepared by diluting lyophilized CFSE with 180 μL of Dimethyl sulfoxide (DMSO C2H6SO, SIGMA-D-5879) and aliquoted in to tubes for further use. Working concentrations were titrated from 10 μM to 1 μM. (eBioscience—650850-85); 0.05% Trypsin and 0.02% EDTA (SIGMA 59417C); 96-well format ELISA plates (Corning CLS3390); BD FACS caliber (E6016); Recombinant mouse B7-H1/PDL1 Fc Chimera, (rm-PD-L1 cat no: 1019-B7-100).
# Splenocytes harvested in a 50 mL falcon tube by mashing mouse spleen in a 40 μm cell strainer were further treated with 1 mL ACK lysis buffer for 5 min at room temperature. After washing with 9 mL of RPMI complete media, cells were re-suspended in 3 mL of 1×PBS in a 15 mL tube. 3 mL of Histopaque was added carefully to the bottom of the tube without disturbing overlaying splenocyte suspension. After centrifuging at 800×g for 20 min at room temperature, the opaque layer of splenocytes was collected carefully without disturbing/mixing the layers. Splenocytes were washed twice with cold 1×PBS followed by total cell counting using Trypan Blue exclusion method and used further for cell based assays.
# Splenocytes were cultured in RPMI complete media (RPMI+10% fetal bovine serum+1 mM sodium pyruvate+10,000 units/mL penicillin and […] streptomycin) and maintained in a CO2 incubator with 5% CO2 at 37° C.
# CFSE is a dye that passively diffuses into cells and binds to intracellular proteins. 1×10^6 cells/mL of harvested splenocytes were treated with 5 μM of CFSE in pre-warmed 1×PBS/0.1% BSA solution for 10 min at 37° C. Excess CFSE was quenched using 5 volumes of ice-cold culture media to the cells and incubated on ice for 5 min. CFSE labelled splenocytes were further given three washes with ice cold complete RPMI media. CFSE labelled 1×10^5 splenocytes added to wells containing either MDA-MB231 cells (1×10^5 cells cultured in high glucose DMEM medium) or recombinant human PDL-1 (100 ng/mL) and test compounds. Splenocytes were stimulated with anti-mouse CD3 and anti-mouse CD28 antibody (1 μg/mL each) and the culture was further incubated for 72 h at 37° C. with 5% CO2. Cells were harvested and washed thrice with ice cold FACS buffer and % proliferation was analysed by flow cytometry with 488 nm excitation and 521 nm emission filters.
# Percent splenocyte proliferation was analysed using cell quest FACS program and percent rescue of splenocyte proliferation by compound was estimated after deduction of % background proliferation value and normalising to % stimulated splenocyte proliferation (positive control) as 100%.
# Stimulated splenocytes: Splenocytes+anti-CD3/CD28 stimulation
# Background proliferation: Splenocytes+anti-CD3/CD28+PD-L1
# Compound proliferation: Splenocytes+anti-CD3/CD28+PD-L1+Compound […]
# T1 sequence (Q9EP73 with tags, fused parts or gaps limits assumed): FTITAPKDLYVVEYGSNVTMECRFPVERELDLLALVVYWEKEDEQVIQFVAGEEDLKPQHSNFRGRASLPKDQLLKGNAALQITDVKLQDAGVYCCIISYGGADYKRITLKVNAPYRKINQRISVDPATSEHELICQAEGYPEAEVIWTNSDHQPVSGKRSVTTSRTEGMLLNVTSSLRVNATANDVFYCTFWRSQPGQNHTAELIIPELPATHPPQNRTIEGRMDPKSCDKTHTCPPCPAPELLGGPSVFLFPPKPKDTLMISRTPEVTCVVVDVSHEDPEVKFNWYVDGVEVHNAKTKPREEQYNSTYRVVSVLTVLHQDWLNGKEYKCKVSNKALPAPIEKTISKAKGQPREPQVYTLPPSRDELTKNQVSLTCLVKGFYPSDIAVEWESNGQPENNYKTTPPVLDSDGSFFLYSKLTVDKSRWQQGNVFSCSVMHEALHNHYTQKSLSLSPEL
row,Compound,activation at 0.1 µM
1,CC(=O)Nc1ccc(S(=O)(=O)N[C@@H](CC(N)=O)c2nc([C@@H](N)CO)no2)cc1 [Compound 90],66%
2,NC(=O)C[C@H](NS(=O)(=O)C1CCCC1)c1nc([C@@H](N)CO)no1 [Compound 88],10%
3,N[C@@H](Cc1ccc(O)cc1)c1noc([C@@H]2CCCN2C(=O)N[C@@H](Cc2ccc(O)cc2)C(=O)O)n1 [Compound 7],91%
4,NCCCC[C@H](N)c1noc([C@H](CC(N)=O)NC(=O)N[C@@H](CO)C(=O)O)n1 [Compound 31],42%
5,NCCCC[C@H](N)c1noc([C@H](CCC(=O)O)NC(=O)N[C@@H](CO)C(=O)O)n1 [Compound 37],60%
6,CCN(Cc1ccccc1)C(=O)N[C@@H](CC(N)=O)c1nc([C@@H](N)CO)no1 (stereo in doubt) [Compound 94],97%
7,CC(C)[C@H](NC(=O)N[C@@H](CC(N)=O)c1nc([C@@H](N)CCCCN)no1)C(=O)O [Compound 45],17%
8,CCC(C)[C@H](N)c1noc([C@H](CC(N)=O)NC(=O)N[C@H](C(=O)O)C(C)O)n1 (some centres unmarked) [Compound 9],84%
9,NC(=O)C[C@H](NS(=O)(=O)C1CCCCC1)c1nc([C@@H](N)CO)no1 [Compound 89],54%
10,CC(O)[C@H](NC(=O)N[C@@H](CC(N)=O)c1nc([C@@H](N)C(C)C)no1)C(=O)O (some centres unmarked) [Compound 40],67%
11,CC(O)[C@H](NC(=O)N[C@@H](CC(N)=O)c1nc([C@@H](N)CCCCN)no1)C(=O)O (some centres unmarked) [Compound 8],48%
12,CC(O)[C@H](NC(=O)N[C@@H](CC(N)=O)c1nc([C@@H](N)CCC(=O)O)no1)C(=O)O (some centres unmarked) [Compound 2],68%
13,NC(=O)C[C@H](NC(=O)N[C@@H](CCC(=O)O)C(=O)O)c1nc([C@@H](N)CO)no1 [Compound 4],44%
14,CC(C)C[C@H](N)c1noc([C@H](CC(N)=O)NC(=O)CNC(=O)N[C@H](C(=O)O)C(C)O)n1 (some centres unmarked) [Compound 82],12%
15,CC(O)[C@H](NC(=O)N[C@H](c1nc([C@@H](N)CO)no1)C(C)C)C(=O)O (some centres unmarked) [Compound 44],71%
16,CCC(C)[C@H](NC(=O)N[C@H](C(=O)O)C(C)O)c1nc([C@@H](N)CO)no1 (some centres unmarked) [Compound 16],50%
17,NC(=O)C[C@H](NC(=O)N[C@@H](CC(N)=O)c1nc([C@@H](N)CC(N)=O)no1)C(=O)O [Compound 56],26%
18,C[C@H](NC(=O)N[C@@H](CC(N)=O)c1nc([C@@H](N)CO)no1)C(=O)O [Compound 18],57%
19,Cn1cc(CN[C@@H](CC(N)=O)c2nc([C@@H](N)CO)no2)cn1 [Compound 95],30%
20,CC(O)[C@H](NC(=O)N[C@@H](CC(N)=O)c1nc([C@@H](N)CO)no1)C(=O)Nc1ccc2c(c1)OCCO2 (some centres unmarked) [Compound 51],20%
21,CC(O)[C@H](NC(=O)[C@H](CCC(N)=O)NC(=O)N[C@@H](CC(N)=O)c1nc([C@@H](N)CO)no1)C(=O)O (some centres unmarked) [Compound 81],18%
22,N=C(N)NCCC[C@H](N)c1noc([C@H](CC(=O)O)NC(=O)N[C@@H](CO)C(=O)O)n1 [Compound 30],65%
23,CC(O)[C@H](NC(=O)N[C@@H](CC(=O)O)c1nc([C@@H](N)CCCNC(=N)N)no1)C(=O)O (some centres unmarked) [Compound 32],70%
24,N[C@@H](CO)c1noc([C@H](CO)NC(=O)N[C@@H](CO)C(=O)O)n1 [Compound 47],49%

row,Compound,activation at 0.1 µM
1,C[C@@H](O)[C@H](NC(=O)N[C@@H](CC(N)=O)c1nc([C@@H](N)Cc2c[nH]c3ccccc23)no1)C(=O)O (stereo in doubt) [Compound 41],78%
2,CCCCCOC(=O)[C@@H](NC(=O)N[C@@H](CC(N)=O)c1nc([C@@H](N)CO)no1)C(C)O (some centres unmarked) [Compound 80],55%
3,CC(O)[C@H](NC(=O)N[C@@H](Cc1ccccc1)c1nc([C@@H](N)CO)no1)C(=O)O (some centres unmarked) [Compound 14],92%
4,CC(O)[C@H](NC(=O)N[C@@H](CC(N)=O)c1noc([C@@H](N)CO)n1)C(=O)O (some centres unmarked) [Compound 83],34%
5,CC(O)[C@H](NC(=O)N[C@@H](CCCCN)c1nc([C@@H](N)CO)no1)C(=O)O (some centres unmarked) [Compound 11],66%
6,NC(=O)C[C@H](NC(=O)N[C@@H](Cc1ccccc1)C(=O)O)c1nc([C@@H](N)CO)no1 [Compound 39],75%
7,NC(=O)CC[C@H](NC(=O)N[C@@H](CC(N)=O)c1nc([C@@H](N)CO)no1)C(=O)O [Compound 28],36%
8,NC(=O)C[C@H](NS(=O)(=O)C1CC1)c1nc([C@@H](N)CO)no1 [Compound 84],71%
9,CC(O)[C@H](NC(=O)N[C@@H](CC(N)=O)c1nc([C@@H](N)Cc2ccc(O)cc2)no1)C(=O)O (some centres unmarked) [Compound 42],50%
10,CC(O)[C@H](NC(=O)N[C@@H](CC(N)=O)c1nc([C@@H](N)Cc2ccccc2)no1)C(=O)O (some centres unmarked) [Compound 13],62%
11,NCCCC[C@H](NC(=O)N[C@@H](CC(=O)O)c1nc([C@@H](N)Cc2cnc[nH]2)no1)C(=O)O [Compound 35],66%
12,CC(O)[C@H](N)c1noc([C@H](Cc2ccccc2)NC(=O)N2CCC[C@H]2C(=O)O)n1 (some centres unmarked) [Compound 62],35%
13,CC(O)[C@H](NC(=O)N[C@@H](C)c1nc([C@@H](N)CO)no1)C(=O)O (some centres unmarked) [Compound 17],58%
14,CC(=O)NCCCC[C@H](NC(=O)N[C@H](C(=O)O)C(C)O)c1nc([C@@H](N)CO)no1 (some centres unmarked) [Compound 27],37%
15,NCCCC[C@H](N)c1noc([C@H](CCC(N)=O)NS(=O)(=O)N[C@@H](CO)C(=O)O)n1 [Compound 103],79%
16,CC(O)[C@H](NC(=O)N[C@@H](CC(=O)O)c1nc([C@@H](N)Cc2cnc[nH]2)no1)C(=O)O (some centres unmarked) [Compound 34],59%
17,CCCCCCNC(=O)CC[C@@H](NC(=O)N[C@H](C(=O)O)C(C)O)c1nc([C@@H](N)CO)no1 (some centres unmarked) [Compound 76],67%
18,CCCCCCNC(=O)C[C@H](NC(=O)N[C@H](C(=O)O)C(C)O)c1nc([C@@H](N)CO)no1 (some centres unmarked) [Compound 77],75%
19,CSCC[C@H](N)c1noc([C@H](CC(N)=O)NC(=O)N[C@@H](CC(=O)O)C(=O)O)n1 [Compound 46],53%
20,CC(O)[C@H](NC(=O)N1CCC[C@H]1c1nc([C@@H](N)CO)no1)C(=O)O (some centres unmarked) [Compound 6],69%
21,CC(O)[C@H](N)c1noc([C@H](Cc2ccc(O)cc2)NC(=O)N2CCC[C@H]2C(=O)O)n1 (some centres unmarked) [Compound 60],99%
22,CCC(C)[C@H](NC(=O)N[C@@H](CC(N)=O)c1nc([C@@H](N)CO)no1)C(=O)O (some centres unmarked) [Compound 3],73%
23,CC(O)[C@H](NC(=O)N[C@@H](CCC(=O)O)c1nc([C@@H](N)CCCCN)no1)C(=O)O (some centres unmarked) [Compound 38],52%
